Results published in ChEMBL document CHEMBL2311357, “Aminoalkyl derivatives of guanidine diaromatic minor groove binders with antiprotozoal activity” (J Med Chem, 2013).

What was measured:
[1] = test system: Salmonidae; test: Binding affinity to salmon sperm DNA in 10 mM phosphate buffer assessed as change in melting temperature at 15 uM by thermal denaturation assay
[2] = test system: Plasmodium falciparum; test: Antimalarial activity against erythrocytic stage of Plasmodium falciparum NF54 assessed as incorporation of [3H]hypoxanthine after 48 hrs by scintillation counting analysis; format: functional, organism-based
[3] = test system: L6; test: Cytotoxicity against rat L6 cells after 70 hrs by resazurin reduction assay; format: cell-based; details: L6, 70 h
[4] = Selectivity index, ratio of IC50 for rat L6 cells to IC50 for Trypanosoma brucei rhodesiense STIB900; format: toxicity, cell-based; details: L6 cells versus Trypanosoma brucei rhodesiense STIB900, read-out: Ratio IC50
[5] = test system: Trypanosoma brucei rhodesiense; test: Antitrypanosomal activity against Trypanosoma brucei rhodesiense STIB900 after 70 hrs by resazurin reduction assay; format: functional, organism-based; details: STIB900, 70 h
[6] = Selectivity index, ratio of IC50 for rat L6 cells to IC50 for Plasmodium falciparum NF54; format: toxicity, cell-based; details: L6 cells versus Plasmodium falciparum NF54, read-out: Ratio IC50
[7] = test system: unidentified; test: Binding affinity to poly(dA-dT) DNA (unknown origin) in PIPES buffer assessed as change in melting temperature
[8] = Binding affinity to poly(dA-dT) DNA (unknown origin) in Tris-Hcl buffer assessed as change in melting temperature
[9] = test system: DNA; test: Binding affinity to calf thymus DNA in MES buffer assessed as change in melting temperature; format: nucleic-acid assay; details: Bos taurus
[10] = test system: DNA; test: Binding affinity to calf thymus DNA in Tris-Hcl buffer assessed as change in melting temperature; format: nucleic-acid assay; details: Bos taurus

| Structure (SMILES) | ΔTm [1] [°C] | IC50 [2] [nM] | IC50 [3] [µM] | selectivity ratio [6] | further results |
| --- | --- | --- | --- | --- | --- |
| N=C(N)Nc1ccc(Cc2ccc(N)cc2)cc1 | 3 |  |  |  |  |
| N=C(N)Nc1ccc(Nc2ccc(NC(=O)CCCCCCCCCCCN)cc2)cc1 | 5 | 2710 | 11.9 | 4 | selectivity ratio [4]: 3; IC50 [5]: 4.06 µM |
| N=C(N)Nc1ccc(CCc2ccc(N)cc2)cc1 | 0.1 |  |  |  |  |
| N=C(N)Nc1ccc(Nc2ccc(NC(=O)CCCCCCCN)cc2)cc1 | 2 |  |  |  |  |
| N=C(N)Nc1ccc(Cc2ccc(NC(=N)N)cc2)cc1 | 8.1 |  |  |  |  |
| N=C(N)Nc1ccc(Oc2ccc(NC(=O)CCCCCCCN)cc2)cc1 | 2.1 | 149 | 136 | 913 | selectivity ratio [4]: 4; IC50 [5]: 31.9 µM |
| N=C(N)Nc1ccc(Nc2ccc(NC(=O)CCCCN)cc2)cc1 | 6.1 | 1460 | 223 | 153 | selectivity ratio [4]: 4; IC50 [5]: 57.7 µM |
| N=C(N)Nc1ccc(Oc2ccc(N)cc2)cc1 | 2 |  |  |  |  |
| N=C(N)Nc1ccc(CCc2ccc(NC(=O)CCCCCCCCCCCN)cc2)cc1 | 1.1 |  |  |  |  |
| N=C(N)Nc1ccc(Cc2ccc(NC(=O)CCCCCCCN)cc2)cc1 | 0.1 |  |  |  |  |
| N=C(N)Nc1ccc(Cc2ccc(NC(=O)CCCCN)cc2)cc1 | 4 | 589 | 105 | 179 |  |
| N=C(N)Nc1ccc(Nc2ccc(N)cc2)cc1 | 2.1 |  |  |  |  |
| N=C(N)Nc1ccc(Oc2ccc(NC(=O)CCCCN)cc2)cc1 | 6 | 106 | 33.5 | 316 | selectivity ratio [4]: 3; IC50 [5]: 13.1 µM |
| N=C(N)Nc1ccc(Nc2ccc(NC(=O)CCCCCCCCCCN)cc2)cc1 | 3.1 | 3790 | 157 | 41 | selectivity ratio [4]: 2; IC50 [5]: 85.4 µM |
| N=C(N)Nc1ccc(CCc2ccc(NC(=O)CCCCCCCCCCN)cc2)cc1 | 1.1 | 5790 | 70.6 | 12 |  |
| N=C(N)Nc1ccc(CCc2ccc(NC(=O)CCCCN)cc2)cc1 | 5.1 | 1060 | 109 | 103 | selectivity ratio [4]: 5; IC50 [5]: 20.2 µM |
| N=C(N)Nc1ccc(Oc2ccc(NC(=O)CCCCCCCCCCN)cc2)cc1 | 2 | 1410 | 62.3 | 44 |  |

| Structure (SMILES) | ΔTm [1] [°C] | IC50 [2] [nM] | IC50 [3] [µM] | selectivity ratio [6] | further results |
| --- | --- | --- | --- | --- | --- |
| Nc1nc(N)nc(Nc2ccc([As]3SCC(CO)S3)cc2)n1 (configuration not stated) [MELARSOPROL] |  |  |  |  | IC50 [5]: 0.0055 µM |
| N=C(N)Nc1ccc(C(=O)c2ccc(NC(=N)N)cc2)cc1 | 4.2 |  |  |  |  |
| N=C(N)Nc1ccc(C(=O)c2ccc(NC(=O)CCCN)cc2)cc1 | 5.1 |  |  |  |  |
| N=C(N)Nc1ccc(Oc2ccc(NC(=O)CCCN)cc2)cc1 | 1.2 | 880 | 173 | 197 |  |
| N=C(N)Nc1ccc(C(=O)c2ccc(N)cc2)cc1 | 0 |  |  |  |  |
| N=C(N)Nc1ccc(Oc2ccc(NC(=O)CCCCCCCCCCCN)cc2)cc1 | 2 | 1710 | 22.4 | 13 |  |
| N=C(N)Nc1ccc(CCc2ccc(NC(=O)CCCN)cc2)cc1 | 5 | 1140 | 133 | 116 | selectivity ratio [4]: 10; IC50 [5]: 13.3 µM |
| N=C(N)Nc1ccc(Cc2ccc(NC(=O)CCCCCCCCCCN)cc2)cc1 | 0 | 2020 | 30.3 | 15 |  |
| N=C(N)c1ccc(OCCCCCOc2ccc(C(=N)N)cc2)cc1 [PENTAMIDINE] |  | 27 | 1.51 | 56 | ΔTm [7]: 12.8 °C; selectivity ratio [4]: 755; IC50 [5]: 0.002 µM; ΔTm [8]: 11.1 °C; ΔTm [9]: 10.6 °C; ΔTm [10]: 20.6 °C |
| N=C(N)Nc1ccc(C(=O)c2ccc(NC(=O)CCCCCCCCCCCN)cc2)cc1 | 2.1 | 1980 | 10.6 | 5 |  |
| N=C(N)Nc1ccc(C(=O)c2ccc(NC(=O)CCCCCCCCCCN)cc2)cc1 | 2 |  |  |  |  |
| N=C(N)Nc1ccc(C(=O)c2ccc(NC(=O)CCCCN)cc2)cc1 | 5.2 | 2550 | 140 | 55 | selectivity ratio [4]: 1; IC50 [5]: 121 µM |
| N=C(N)Nc1ccc(CCc2ccc(NC(=O)CCCCCCCN)cc2)cc1 | 2 |  |  |  |  |
| N=C(N)Nc1ccc(Cc2ccc(NC(=O)CCCN)cc2)cc1 | 1 | 2620 | 207 | 79 |  |
| N=C(N)Nc1ccc(Nc2ccc(NC(=O)CCCN)cc2)cc1 | 1 | 1200 | 127 | 106 |  |
| N=C(N)Nc1ccc(Cc2ccc(NC(=O)CCCCCCCCCCCN)cc2)cc1 | 0.1 | 2320 | 23.8 | 10 |  |
| N=C(N)Nc1ccc(Nc2ccc(NC(=N)N)cc2)cc1 | 8 |  |  |  |  |
